Each block holds one compound with its values, some of them ahead of it.
Tests used:
[1] = target: T1, Human immunodeficiency virus type 1 reverse transcriptase (Human immunodeficiency virus 1, UniProt Q72547); experiment: Inhibition of HIV1 reverse transcriptase
[2] = target: T2, Human immunodeficiency virus type 1 reverse transcriptase (Human immunodeficiency virus 1, UniProt Q72547, K103N/Y181C); experiment: Inhibition of HIV1 RES056 reverse transcriptase K103N/Y181C double mutant
[3] = target: T1, Human immunodeficiency virus type 1 reverse transcriptase; experiment: Inhibition of wild-type HIV1 3B reverse transcriptase
[4] = target: Human immunodeficiency virus type 1 reverse transcriptase (Human immunodeficiency virus 1, UniProt Q72547, K103N); experiment: Inhibition of recombinant HIV1 reverse transcriptase K103N mutant
[5] = target: Human immunodeficiency virus type 1 reverse transcriptase (Human immunodeficiency virus 1, UniProt Q72547, K103N/L100I); experiment: Inhibition of recombinant HIV1 reverse transcriptase L100I/K103N double mutant
[6] = target: Human immunodeficiency virus type 1 reverse transcriptase (Human immunodeficiency virus 1, UniProt Q72547, L100I); experiment: Inhibition of recombinant HIV1 reverse transcriptase L100I mutant
[7] = target: Human immunodeficiency virus type 1 reverse transcriptase (Human immunodeficiency virus 1, UniProt Q72547, Y188L); experiment: Inhibition of recombinant HIV1 reverse transcriptase Y188L mutant
[8] = target: Human immunodeficiency virus type 1 reverse transcriptase (Human immunodeficiency virus 1, UniProt Q72547, Y181C); experiment: Inhibition of recombinant HIV1 reverse transcriptase Y181C mutant
[9] = target: T2, Human immunodeficiency virus type 1 reverse transcriptase; experiment: Inhibition of recombinant HIV1 reverse transcriptase K103N/Y181C double mutant
[10] = Selectivity index, ratio of CC50 for human MT4 cells to EC50 for wild-type HIV1 3B reverse transcriptase infected in human MT4 cells; type: toxicity, cell-based; settings: read-out: Ratio CC50/EC50
[11] = test system: Human immunodeficiency virus 1; experiment: Antiviral activity against wild-type HIV1 infected in human TZM-bl cells pretreated with cells for 30 mins followed by viral infection and measured after 48 hrs by luciferase reporter gene assay; type: functional, organism-based; settings: Human immunodeficiency virus 1, TZM-bl
[12] = Selectivity index, ratio of CC50 for human TZM-bl cells to EC50 for wild-type HIV1 infected in human TZM-bl cells; type: toxicity, cell-based; settings: read-out: Ratio CC50/EC50

SMILES: CC(=O)c1ccc(C)cc1NC(C(N)=O)c1c(Cl)cccc1Cl (stereo not drawn) [LOVIRIDE]
EC50 [1]: 13 nM

SMILES: N#Cc1ccc(Nc2nccc(/C(=N\N)c3ccccc3Br)n2)cc1
EC50 [2]: > 9200 nM
EC50 [3]: 1.7 nM

SMILES: N#Cc1ccc(Nc2nccc(/C(=N\N)c3ccc4ccccc4c3)n2)cc1
EC50 [2]: 8400 nM
EC50 [3]: 8.4 nM

SMILES: Cc1cc(C)c(Nc2ccnc(Nc3ccc(C#N)cc3)n2)c(C)c1 [DAPIVIRINE]
IC50 [4]: 3.98 nM
IC50 [5]: > 10000 nM
IC50 [6]: 15.8 nM
IC50 [7]: 39.8 nM
IC50 [8]: 7.94 nM
IC50 [9]: 39.8 nM
IC50 [3]: 1 nM

SMILES: N#Cc1ccc(Nc2nccc(Oc3ccc4cc(C#N)ccc4c3Br)n2)cc1
selectivity ratio [10]: 181000

SMILES: Cc1cc(C)c(Nc2ccnc(Nc3ccc(C(N)=O)cc3)n2)c(C)c1
IC50 [4]: > 10000 nM
IC50 [6]: > 10000 nM
IC50 [7]: > 10000 nM
IC50 [8]: > 10000 nM
IC50 [3]: 63.1 nM

EC50 [11]: 1.6 nM
SMILES: Cc1cc(/C=C/C#N)cc(C)c1Nc1ccc(F)c(Nc2ccc(C#N)cc2)n1
selectivity ratio [12]: 62500

SMILES: N#Cc1ccc(Nc2nccc(Oc3ccc4ccccc4c3Br)n2)cc1
selectivity ratio [10]: 65600

SMILES: Cc1cc(C)c(Nc2ccnc(Nc3ccc(Cl)cc3)n2)c(C)c1
IC50 [4]: 25.1 nM
IC50 [5]: > 10000 nM
IC50 [6]: 200 nM
IC50 [7]: 2510 nM
IC50 [8]: 79.4 nM
IC50 [3]: 3.16 nM

EC50 [11]: 2.8 nM
SMILES: Cc1cc(C#N)cc(C)c1Nc1ncc(F)c(Nc2ccc(C#N)cc2)n1
selectivity ratio [12]: 36000

EC50 [11]: 0.9 nM
SMILES: Cc1cc(/C=C/C#N)cc(C)c1Nc1ncc(F)c(Nc2ccc(C#N)cc2)n1
selectivity ratio [12]: > 42000

EC50 [11]: 1 nM
SMILES: Cc1cc(/C=C/C#N)cc(F)c1Nc1ccc(F)c(Nc2ccc(C#N)cc2)n1
selectivity ratio [12]: > 100000

Reference: ChEMBL document CHEMBL4265932, “Advances in diarylpyrimidines and related analogues as HIV-1 nonnucleoside reverse transcriptase inhibitors” (Eur J Med Chem, 2018)
